Assay results reported in ChEMBL document CHEMBL1124082, “Synthesis, intramolecular hydrogen bonding, and biochemical studies of clitocine, a naturally occurring exocyclic amino nucleoside” (J Med Chem, 1988).

Assays:
[1] = Inhibition of growth of human B lymphoblast derived W1-L2 cells; type: functional; conditions: WIL2, read-out: ID50 (the source's name)
Adenosine kinase [2] = target: T1, Adenosine kinase (Homo sapiens, UniProt P55263); experiment: Inhibition of adenosine kinase from undialyzed W1-L2 lysate (0-50 uM)
Adenosine kinase [3] = target: T1, Adenosine kinase; experiment: Binding affinity towards adenosine kinase
L1210 = experiment: In vitro inhibition of L1210 cells; type: functional; conditions: Mus musculus, read-out: ID50 (the source's name)

T1 sequence (P55263 whole entry): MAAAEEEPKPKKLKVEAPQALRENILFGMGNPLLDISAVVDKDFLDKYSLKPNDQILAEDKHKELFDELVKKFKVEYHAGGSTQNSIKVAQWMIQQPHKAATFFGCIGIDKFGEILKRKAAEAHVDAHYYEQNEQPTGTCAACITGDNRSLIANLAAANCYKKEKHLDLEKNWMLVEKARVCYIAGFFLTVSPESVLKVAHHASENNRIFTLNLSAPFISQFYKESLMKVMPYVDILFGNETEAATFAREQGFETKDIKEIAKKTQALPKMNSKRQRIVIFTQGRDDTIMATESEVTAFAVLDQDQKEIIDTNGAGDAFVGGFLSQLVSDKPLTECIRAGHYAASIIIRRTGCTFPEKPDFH

Ki (Adenosine kinase [2]): 3000 nM
Ki (Adenosine kinase [3]): 300 nM
IC50 (L1210): 30 nM
SMILES: Nc1ncnc(N[C@@H]2O[C@H](CO)[C@@H](O)[C@H]2O)c1[N+](=O)[O-]
IC50 [1]: 30 nM
